Series [1] in a line: Apparent permeability across human Caco2 cells at 50 uM after 90 mins by LC-MS analysis. It is filed as ADME, cell-based. The following applies: caco-2, 1.5 h. Background: Caco-2 cells form a polarised layer with tight junctions and transporters.
The subject of another series is Caco-2. The series is described as follows: Cytotoxicity against human Caco2 cells at 0.5 to 64 uM after 2 hrs by resazurin dye based fluorescence assay. It is filed as cell-based. Conditions: caco-2, 2 h. Background: Alamar Blue is a resazurin reagent that responds to reducing activity.
Series [2] can be described thus: Apparent permeability of the compound at 50 uM after 5 hrs by PAMPA. It counts as ADME. Background: In PAMPA a lipid-coated filter parts donor from acceptor wells.
A short description of series [3]: Inhibition of porcine pepsin using EDANS-DABCYL as substrate pretreated for 5 mins followed by substrate addition measured for 5 mins by spectrophotometric method. More on the design: species or system Sus scrofa.

Here are results for ten compounds from ChEMBL document CHEMBL4266016, “Synthesis, Racemic X-ray Crystallographic, and Permeability Studies of Bioactive Orbitides from Jatropha Species” (J Nat Prod, 2018).

For orientation: IC50 means the concentration at which inhibition is half-maximal.

Molecules are shown by their SMILES. Square brackets hold non-standard residues; d marks the D form. Peptide text beside a SMILES is read from it. NMeF = CN[C@@H](Cc1ccccc1)C(=O)O; NMeI = CC[C@H](C)[C@H](NC)C(=O)O; NMeL = CN[C@@H](CC(C)C)C(=O)O; NMeS = CN[C@@H](CO)C(=O)O; Sar = CNCC(=O)O

In the case of `CC[C@H](C)[C@@H]1NC(=O)[C@H]([C@@H](C)O)NC(=O)CNC(=O)CNC(=O)[C@H](Cc2ccccc2)NC(=O)CNC(=O)[C@H](Cc2ccccc2)NC(=O)[C@H]([C@@H](C)CC)NC1=O` (cyclo(FGFGGTII)), the Papp result in series [1] and in series [2] was “Impermeable” in each case. The Activity entry with Caco-2 was “Non-Toxic”.

For `CC[C@H](C)[C@@H]1NC(=O)[C@H]([C@@H](C)O)NC(=O)CN(C)C(=O)CNC(=O)[C@H](Cc2ccccc2)NC(=O)CNC(=O)[C@H](Cc2ccccc2)N(C)C(=O)[C@H]([C@@H](C)CC)NC1=O` (cyclo(FG[Sar]TII[NMeF]G)), the Papp entry in series [1] and in series [2] was “Impermeable” each time.

For the compound `CC[C@H](C)[C@@H]1NC(=O)[C@H]([C@@H](C)O)NC(=O)CN(C)C(=O)CNC(=O)[C@H](Cc2ccccc2)NC(=O)CNC(=O)[C@H](Cc2ccccc2)N(C)C(=O)[C@H]([C@@H](C)CC)N(C)C1=O` (cyclo(FG[Sar]TI[NMeI][NMeF]G)), the Papp result in series [1] and in series [2] was “Impermeable” throughout.

On to `CC[C@H](C)[C@@H]1NC(=O)[C@H]([C@@H](C)O)NC(=O)CN(C)C(=O)CN(C)C(=O)[C@H](Cc2ccccc2)NC(=O)CN(C)C(=O)[C@H](Cc2ccccc2)N(C)C(=O)[C@H]([C@@H](C)CC)NC1=O` (cyclo(F[Sar][Sar]TII[NMeF][Sar])), for which the Papp entry in series [1] and in series [2] was “Impermeable” in each case.

`CC[C@H](C)[C@@H]1NC(=O)CNC(=O)[C@H](CC(C)C)NC(=O)[C@H]([C@@H](C)CC)NC(=O)[C@H]([C@@H](C)CC)NC(=O)[C@H](CO)NC(=O)CNC(=O)[C@H](CC(C)C)NC1=O` (cyclo(GILGSIIL)): the Papp result in series [1] and in series [2] was “Impermeable” each time. Also, the Activity entry in the series on Caco-2 is reported as “Non-Toxic”.

Turning to `CC[C@H](C)[C@@H]1NC(=O)CNC(=O)[C@H](CC(C)C)NC(=O)[C@H]([C@@H](C)CC)NC(=O)[C@H]([C@@H](C)CC)NC(=O)[C@H](CO)N(C)C(=O)CNC(=O)[C@H](CC(C)C)NC1=O` (cyclo(GILG[NMeS]IIL)), the Papp result in series [1] and in series [2] was “Impermeable” throughout.

For `CC[C@H](C)[C@@H]1NC(=O)CNC(=O)[C@H](CC(C)C)NC(=O)[C@H]([C@@H](C)CC)NC(=O)[C@H]([C@@H](C)CC)NC(=O)[C@H](CO)NC(=O)CN(C)C(=O)[C@H](CC(C)C)NC1=O` (cyclo(GIL[Sar]SIIL)), the Papp entry in series [1] and in series [2] was “Impermeable” each time.

On to `CC[C@H](C)[C@@H]1NC(=O)CNC(=O)[C@H](CC(C)C)NC(=O)[C@H]([C@@H](C)CC)NC(=O)[C@H]([C@@H](C)CC)NC(=O)[C@H](CO)N(C)C(=O)CN(C)C(=O)[C@H](CC(C)C)NC1=O` (cyclo(GIL[Sar][NMeS]IIL)), for which the Papp entry in series [1] and in series [2] was “Impermeable” in each case.

For the compound `CC(C)C[C@@H]1NC(=O)CNC(=O)[C@@H]2CCCN2C(=O)CNC(=O)[C@H](Cc2c[nH]c3ccccc23)NC(=O)[C@H](CC(C)C)NC(=O)[C@H](CC(N)=O)NC(=O)[C@H](CC(C)C)NC1=O` (cyclo(GLLNLWGP)), the Papp entry in series [1] and in series [2] was “Impermeable” in each case. For the same compound, the IC50 in series [3] was found to be 900 nM. In the series with Caco-2, the Activity entry is recorded as “Non-Toxic”.

Take `CC[C@H](C)[C@@H]1NC(=O)[C@H]([C@@H](C)CC)N(C)C(=O)[C@H](CO)NC(=O)CN(C)C(=O)[C@H](CC(C)C)N(C)C(=O)[C@H]([C@@H](C)CC)NC(=O)CN(C)C(=O)[C@H](CC(C)C)NC1=O` (cyclo(IL[Sar]I[NMeL][Sar]S[NMeI])): the Papp result is on record as “Impermeable” in series [1] and “Permeable” in series [2].
